Measurements from patent US7514454B2, “Piperidin-2,6-dione pamoate salts and their use for the treatment of stress-related affective disorders” (Prestwick Pharmaceuticals, Inc., priority 2002, dated 2009).

Tests used:
tryptophan hydroxylase = experiment: blockade of tryptophan hydroxylase activation; assay type: biochemical; conditions: activation by metabolic inhibitors such as guanidine and sodium cyanide
[1] = about 4 mg/kg/day (200-400 mg/day for human patients); cited from earlier work
[2] = rats, 200 mg/kg/day p.o., cited from earlier work
[3] = 1 mg b.i.d. (about 30 μg/kg/day), FDA permitted dose levels; cited from earlier work

COc1cccc(C2(CCCN(C)C)C(=O)NC(=O)CC2(C)C)c1 (centres unmarked) [AGN 2979 pamoate, 3(3-methoxyphenyl)-3-(3-dimethylaminopropyl)-4,4-dimethyl-piperidine-2,6-dione pamoate]
blockade of tryptophan hydroxylase activation (tryptophan hydroxylase): blocked

COc1cccc(C2(CCCN(C)C)C(=O)NC(=O)CC2(C)C)c1.Cl (centres unmarked) [hydrochloride salt of AGN 2979]
effectiveness in the treatment of anxiety and depression [1]: effective | hepatocyte changes revealed by post-mortem examination ([2]; 1 year, not detected by routine transaminase determinations): hepatocyte changes | weight loss ([2]; over the 1-year period, immediate and continuing): 40% | anxiolytic properties [3]: only marginally effective
